Laboratory results as given in US8871946B2, “Benzimidazole-4-carboxamide derivatives, their preparation methods, pharmaceutical compositions and their uses” (Zhejiang Medicine Co., Ltd. Xinchang Pharmaceutical Factory, priority 2009, dated 2014).
Values after ≈ are worked out from the molar mass of the structure shown.

Each compound was assayed on coxsackie B3 viruses (assay: Measures of anti-coxsackie B3 viruses activity of the compounds in Vero cells). Conditions: Enterovirus B, B3, half inhibitory concentration for viruses, read-out: IC50.
Format: cell-based
Source text: Measures of Anti-Coxsackie B3 Viruses Activity of the Compounds The products are applied for measures of antivirus properties of Vero cells. Refer to the results of Table 3: datum of anti-coxsackie B3 viruses activities of some compounds. […] IC50 indicates half inhibitory concentration for viruses. RBV indicates triazole nucleoside, is also called ribavirin, virazole.

Row | Compound | IC50
1 | NC(=O)c1ncn([C@@H]2O[C@H](CO)[C@@H](O)[C@H]2O)n1 [RBV, ribavirin, reference compound] | 354 µg/mL (≈ 1450 µM)

Same assay, conditions: half inhibitory concentration for viruses

Row | Compound | IC50
2 | Nc1ncnc(Cl)c1-c1nc2c(C(=O)Nc3ccccc3O)cccc2[nH]1 [2-(4-amino-6-chloro-5-pyrimidinyl)-1H-benzimidazole-4-(N-o-hydroxyphenyl)amide] | 12.3 µg/mL (≈ 32.3 µM)
3 | Nc1ccc(NC(=O)c2cccc3[nH]c(-c4cnccn4)nc23)cc1 [2-(2-pyrazinyl)-1H-benzimidazole-4-(N-p-aminophenyl)amide] | 4.2 µg/mL (≈ 12.7 µM)
4 | Nc1ccc(NC(=O)c2cccc3[nH]c(-c4cncs4)nc23)cc1 [5-thiazolyl-1H-benzimidazole-4-(N-p-aminophenyl)amide] | 13.5 µg/mL (≈ 40.3 µM)
5 | O=C(Nc1ccccc1O)c1cccc2[nH]c(-c3cnc(-c4ccccc4)nc3)nc12 [2-(2-phenyl-5-pyrimidinyl)-1H-benzimidazole-4-(N-o-hydroxyphenyl)amide] | 13.2 µg/mL (≈ 32.4 µM)
6 | Cc1ccccc1NC(=O)c1cccc2[nH]c(-c3ccc(N)s3)nc12 [2-(5-amino-2-thienyl)-1H-benzimidazole-4-(N-o-methylphenyl)amide] | 8.7 µg/mL (≈ 25 µM)
7 | O=C(NC(CO)C(O)c1ccc([N+](=O)[O-])cc1)c1cccc2[nH]c(-c3ncccn3)nc12 (stereo not shown) [(L)-2-(2-pyrimidinyl)-1H-benzimidazole-4-[N-(1-hydroxymethyl-2-p-nitrophenylhydroxyethyl)]amide] | 9.8 µg/mL (≈ 22.6 µM)
8 | Cc1nc(-c2nc3c(C(=O)Nc4ccc(N)cc4)cccc3[nH]2)sc1N [2-(4-methyl-5-aminothiazolyl)-1H-benzimidazole-4-(N-p-aminophenyl)amide] | 9.8 µg/mL (≈ 26.9 µM)
9 | O=C(Nc1ccc(O)cc1)c1cccc2[nH]c(-c3ccc(O)c(O)c3O)nc12 [2-(2,3,4-trihydroxyphenyl)-1H-benzimidazole-4-(N-p-hydroxyphenyl)amide] | 11.2 µg/mL (≈ 29.7 µM)
10 | O=C(NC(CO)C(O)c1ccc([N+](=O)[O-])cc1)c1cccc2[nH]c(-c3cnccn3)nc12 (stereo not shown) [(L)-2-(2-pyrazinyl)-1H-benzimidazole-4-[N-(1-hydroxymethyl-2-p-nitrophenylhydroxyethyl)]amide] | 2.3 µg/mL (≈ 5.29 µM)
11 | CN1CCN(C)C(c2nc3c(C(=O)NC(CO)C(O)c4ccc([N+](=O)[O-])cc4)cccc3[nH]2)C1 (stereo not shown) [(L)-2-(2-N-methyl-4-N-methylpiperazinyl)-1H-benzimidazole-4-[N-(1-hydroxymethyl-2-p-nitrophenylhydroxyethyl)]amide] | 9.2 µg/mL (≈ 19.6 µM)
12 | Cc1nc(-c2nc3c(C(=O)NC(CO)C(O)c4ccc([N+](=O)[O-])cc4)cccc3[nH]2)sc1N (stereo not shown) [(L)-2-(4-methyl-5-aminothiazolyl)-1H-benzimidazole-4-[N-(1-hydroxymethyl-2-p-nitrophenylhydroxyethyl)]amide] | 8.9 µg/mL (≈ 19 µM)
13 | CC(NC(=O)c1cccc2[nH]c(-c3cccnc3)nc12)C(O)c1ccc(Cl)cc1 (stereo not shown) [2-(3-pyridyl)-1H-benzimidazole-4-[N-(1-methyl-2-p-chlorophenylhydroxyethyl)]amide] | 2.37 µg/mL (≈ 5.82 µM)
14 | O=C(Nc1ccccc1F)c1cccc2[nH]c(-c3cccnn3)nc12 [2-(3-pyridazinyl)-1H-benzimidazole-4-(N-o-fluorophenyl)amide] | 12.3 µg/mL (≈ 36.9 µM)
15 | COc1cccc(-c2nc3c(C(=O)NC(CO)C(O)c4ccc([N+](=O)[O-])cc4)cccc3[nH]2)n1 (stereo not shown) [(L)-2-(6-methoxypyridyl)-1H-benzimidazole-4-[N-(1-hydroxymethyl-2-p-nitrophenylhydroxyethyl)]amide] | 11.2 µg/mL (≈ 24.2 µM)
16 | O=C(NC(CO)C(O)c1ccc([N+](=O)[O-])cc1)c1cccc2[nH]c(-c3ccccn3)nc12 (stereo not shown) [(L)-2-(2-pyridyl)-1H-benzimidazole-4-[N-(1-hydroxymethyl-2-p-nitrophenylhydroxyethyl)]amide] | 1.76 µg/mL (≈ 4.06 µM)
17 | O=C(Nc1ccccc1F)c1cccc2[nH]c(-c3ccc[nH]3)nc12 [2-(2-pyrrolyl)-1H-benzimidazole-4-(N-o-fluorophenyl)amide] | 9.2 µg/mL (≈ 28.7 µM)
18 | O=C(NC(CO)C(O)c1ccc([N+](=O)[O-])cc1)c1cccc2[nH]c(C3CCCCN3)nc12 (stereo not shown) [(L)-2-(2-piperidinyl)-1H-benzimidazole-4-[N-(1-hydroxymethyl-2-p-nitrophenylhydroxyethyl)]amide] | 17.2 µg/mL (≈ 39.1 µM)
19 | 2-(2-N-methyl-4-N- methylpiperazinyl)-1H- benzimidazole-4-(N-o- fluorophenyl)amide | 8.9 µg/mL
20 | O=C(Nc1ccccc1O)c1cccc2[nH]c(-c3cccnn3)nc12 [2-(3-pyridazinyl)-1H-benzimidazole-4-(N-o-hydroxyphenyl)amide] | 15.2 µg/mL (≈ 45.9 µM)
21 | O=C(NC(CO)C(O)c1ccc([N+](=O)[O-])cc1)c1cccc2[nH]c(-c3ccc([N+](=O)[O-])s3)nc12 (stereo not shown) [(L)-2-(5-nitro-2-thienyl)-1H-benzimidazole-4-[N-(1-hydroxymethyl-2-p-nitrophenylhydroxyethyl)]amide] | 10.69 µg/mL (≈ 22.1 µM)
22 | O=C(NC(CO)C(O)c1ccc([N+](=O)[O-])cc1)c1cccc2[nH]c(-c3c[nH]c4ccccc34)nc12 [(L-)2-(3-indolyl)-1H-benzimidazole-4-[N-(1-hydroxymethyl-2-p-nitrophenylhydroxyethyl)]amide] | 9.6 µg/mL (≈ 20.4 µM)

Row | Compound | IC50
23 | O=C(Nc1ccccc1F)c1cccc2[nH]c(N3CCNCC3)nc12 [2-N-piperazinyl-1H-benzimidazole-4-(N-o-fluorophenyl)amide] | 4.8 µg/mL (≈ 14.1 µM)
24 | Nc1ccc(NC(=O)c2cccc3[nH]c(-c4c[nH]c5ccccc45)nc23)cc1 [2-(3-indolyl)-1H-benzimidazole-4-(N-p-aminophenyl)amide] | 10.8 µg/mL (≈ 29.4 µM)
25 | COc1ccnc(-c2nc3c(C(=O)Nc4ccccc4O)cccc3[nH]2)c1 [2-(4-methoxypyridyl)-1H-benzimidazole-4-(N-o-hydroxyphenyl)amide] | 16.2 µg/mL (≈ 45 µM)
26 | O=C(Nc1ccccc1F)c1cccc2[nH]c(-c3ncccn3)nc12 [2-(2-pyrimidinyl)-1H-benzimidazole-4-(N-o-fluorophenyl)amide] | 8.8 µg/mL (≈ 26.4 µM)
27 | CC(NC(=O)c1cccc2[nH]c(-c3ccccn3)nc12)C(O)c1ccc(Cl)cc1 (stereo not shown) [2-(2-pyridyl)-1H-benzimidazole-4-[N-(1-methyl-2-p-chlorophenylhydroxyethyl)]amide] | 4.115 µg/mL (≈ 10.1 µM)
28 | CN(C)c1ccnc(-c2nc3c(C(=O)Nc4ccc(N)cc4)cccc3[nH]2)c1 [2-(4-dimethylaminopyridyl)-1H-benzimidazole-4-(N-p-aminophenyl)amide] | 10.2 µg/mL (≈ 27.4 µM)
29 | Nc1ccc(-c2nc3c(C(=O)NC(CO)C(O)c4ccc([N+](=O)[O-])cc4)cccc3[nH]2)s1 (stereo not shown) [(L)-2-(5-amino-2-thienyl)-1H-benzimidazole-4-[N-(1-hydroxymethyl-2-p-nitrophenylhydroxyethyl)]amide] | 2.3 µg/mL (≈ 5.07 µM)
30 | Nc1ccc(NC(=O)c2cccc3[nH]c(-c4ncccn4)nc23)cc1 [2-(2-pyrimidinyl)-1H-benzimidazole-4-(N-p-aminophenyl)amide] | 9.8 µg/mL (≈ 29.7 µM)
31 | Nc1ccc(-c2nc3c(C(=O)Nc4ccccc4F)cccc3[nH]2)s1 [2-(5-amino-2-thienyl)-1H-benzimidazole-4-(N-o-fluorophenyl)amide] | 3.5 µg/mL (≈ 9.93 µM)
32 | O=C(NC(CO)C(O)c1ccc([N+](=O)[O-])cc1)c1cccc2[nH]c(-c3cc(O)c(O)c(O)c3)nc12 (stereo not shown) [(L)-2-(3,4,5-trihydroxyphenyl)-1H-benzimidazole-4-[N-(1-hydroxymethyl-2-p-nitrophenylhydroxyethyl)]amide] | 10.2 µg/mL (≈ 21.2 µM)
33 | COc1ccnc(-c2nc3c(C(=O)NC(CO)C(O)c4ccc([N+](=O)[O-])cc4)cccc3[nH]2)c1 (stereo not shown) [(L)-2-(4-methoxypyridyl)-1H-benzimidazole-4-[N-(1-hydroxymethyl-2-p-nitrophenylhydroxyethyl)]amide] | 6.3 µg/mL (≈ 13.6 µM)
34 | O=C(Nc1ccccc1F)c1cccc2[nH]c(-c3cnc(-c4ccccc4)nc3)nc12 [2-(2-phenyl-5-pyrimidinyl)-1H-benzimidazole-4-(N-o-fluorophenyl)amide] | 12.6 µg/mL (≈ 30.8 µM)
35 | Nc1ccc(NC(=O)c2cccc3[nH]c(-c4cccnn4)nc23)cc1 [2-(3-pyridazinyl)-1H-benzimidazole-4-(N-p-aminophenyl)amide] | 10.2 µg/mL (≈ 30.9 µM)
36 | O=C(NC(CO)C(O)c1ccc([N+](=O)[O-])cc1)c1cccc2[nH]c(-c3nccs3)nc12 (stereo not shown) [(L)-2-thiazolyl-1H-benzimidazole-4-[N-(1-hydroxymethyl-2-p-nitrophenylhydroxyethyl)]amide] | 11.2 µg/mL (≈ 25.5 µM)
37 | O=C(Nc1ccccc1F)c1cccc2[nH]c(-c3cnccn3)nc12 [2-(2-pyrazinyl)-1H-benzimidazole-4-(N-o-fluorophenyl)amide] | 6.5 µg/mL (≈ 19.5 µM)
38 | CC(NC(=O)c1cccc2[nH]c(-c3cccs3)nc12)C(O)c1ccc(Cl)cc1 (stereo not shown) [2-(2-thienyl)-1H-benzimidazole-4-[N-(1-methyl-2-p-chlorophenylhydroxyethyl)]amide] | 5.30 µg/mL (≈ 12.9 µM)
39 | Cc1cc(C)c(-c2nc3c(C(=O)Nc4ccccc4O)cccc3[nH]2)[nH]1 [2-(3,5-dimethyl-2-pyrrolyl)-1H-benzimidazole-4-(N-o-hydroxyphenyl)amide] | 10.2 µg/mL (≈ 29.4 µM)
40 | O=C(Nc1ccccc1O)c1cccc2[nH]c(-c3ncccn3)nc12 [2-(2-pyrimidinyl)-1H-benzimidazole-4-(N-o-hydroxyphenyl)amide] | 7.8 µg/mL (≈ 23.5 µM)
41 | O=C(NC(CO)C(O)c1ccc([N+](=O)[O-])cc1)c1cccc2[nH]c(-c3cccs3)nc12 (stereo not shown) [(L)-2-(2-thienyl)-1H-benzimidazole-4-[N-(1-hydroxymethyl-2-p-nitrophenylhydroxyethyl)]amide] | 15.90 µg/mL (≈ 36.3 µM)
42 | O=C(NC(CO)C(O)c1ccccc1[N+](=O)[O-])c1cccc2[nH]c(N3CCNCC3)nc12 (stereo not shown) [(L)-2-N-piperazinyl-1H-benzimidazole-4-[N-(1-hydroxymethyl-2-o-nitrophenylhydroxyethyl)]amide] | 4.2 µg/mL (≈ 9.54 µM)
43 | CC(NC(=O)c1cccc2[nH]c(-c3ccc([N+](=O)[O-])s3)nc12)C(O)c1ccc(Cl)cc1 (stereo not shown) [2-(5-nitro-2-thienyl)-1H-benzimidazole-4-(N-(1-methyl-2-p-chlorophenylhydroxyethyl))-amide] | 7.12 µg/mL (≈ 15.6 µM)
